Assay results as given in PubChem BioAssay (NCI).
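Compound exposure: 48 hours, 5 concentrations, 96-well plates. Definition used: TGI = concentration required for complete inhibition of growth.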

Experiments:
Assay in all cases: growth of human tumour cells (NCI), 48 h
OVCAR-4 ovarian = system: OVCAR-4 ovarian
HOP-62 NSCLC = system: HOP-62 NSCLC
RXF 393 renal = system: RXF 393 renal
SK-MEL-28 melanoma = system: SK-MEL-28 melanoma
UACC-62 melanoma = system: UACC-62 melanoma
U251 CNS = system: U251 CNS
UACC-257 melanoma = system: UACC-257 melanoma
NCI-H23 lung = system: NCI-H23 lung
SF-295 CNS = system: SF-295 CNS
SK-OV-3 ovarian = system: SK-OV-3 ovarian
MOLT-4 leukemia = system: MOLT-4 leukemia
CCRF-CEM leukemia = system: CCRF-CEM leukemia
OVCAR-8 ovarian = system: OVCAR-8 ovarian
SF-268 CNS = system: SF-268 CNS
NCI-H460 lung = system: NCI-H460 lung
COLO 205 colon = system: COLO 205 colon
M19-MEL melanoma = system: M19-MEL melanoma
HT29 colon = system: HT29 colon
OVCAR-5 ovarian = system: OVCAR-5 ovarian
KM12 colon = system: KM12 colon
HOP-92 NSCLC = system: HOP-92 NSCLC
SNB-19 CNS = system: SNB-19 CNS
OVCAR-3 ovarian = system: OVCAR-3 ovarian
SW-620 colon = system: SW-620 colon
SNB-75 CNS = system: SNB-75 CNS
SF-539 CNS = system: SF-539 CNS
HCT-116 colon = system: HCT-116 colon
786-0 renal = system: 786-0 renal
ACHN renal = system: ACHN renal
IGROV1 ovarian = system: IGROV1 ovarian
HCT-15 colon = system: HCT-15 colon
UO-31 renal = system: UO-31 renal
DMS 114 small cell lung = system: DMS 114 small cell lung
MALME-3M melanoma = system: MALME-3M melanoma
SN12C renal = system: SN12C renal
SNB-78 CNS = system: SNB-78 CNS
EKVX NSCLC = system: EKVX NSCLC
A498 renal = system: A498 renal
DMS 273 small cell lung = system: DMS 273 small cell lung
NCI-H522 lung = system: NCI-H522 lung
KM20L2 colon = system: KM20L2 colon
TK-10 renal = system: TK-10 renal
NCI-H226 lung = system: NCI-H226 lung
K-562 leukemia = system: K-562 leukemia
CAKI-1 renal = system: CAKI-1 renal
M14 melanoma = system: M14 melanoma
SR leukemia = system: SR leukemia
LXFL 529 NSCLC = system: LXFL 529 NSCLC
HL-60(TB) leukemia = system: HL-60(TB) leukemia
DLD-1 colon = system: DLD-1 colon
A549 NSCLC = system: A549 NSCLC
SK-MEL-2 melanoma = system: SK-MEL-2 melanoma
RPMI-8226 leukemia = system: RPMI-8226 leukemia
SK-MEL-5 melanoma = system: SK-MEL-5 melanoma
LOX IMVI melanoma = system: LOX IMVI melanoma
MDA-MB-435 = system: MDA-MB-435
HS 578T breast = system: HS 578T breast
DU-145 prostate = system: DU-145 prostate
BT-549 breast = system: BT-549 breast
T-47D breast = system: T-47D breast
PC-3 prostate = system: PC-3 prostate
MDA-MB-231 breast = system: MDA-MB-231 breast
HCC-2998 colon = system: HCC-2998 colon
MCF7 breast = system: MCF7 breast
MDA-N = system: MDA-N
NCI/ADR-RES ovarian = system: NCI/ADR-RES ovarian

In the case of `COc1ccc(C(=O)C(c2ccc(OC)cc2)C2(O)C(=O)Nc3ccc([N+](=O)[O-])cc32)cc1` (stereo unspecified), the TGI (OVCAR-4 ovarian) is reported as > 100 µM, the TGI (HOP-62 NSCLC) is reported as > 100 µM and the TGI (RXF 393 renal) is reported as > 100 µM. For the same molecule, the TGI (SK-MEL-28 melanoma) was > 100 µM, the TGI (UACC-62 melanoma) was > 100 µM and the TGI (U251 CNS) was > 100 µM. The TGI (UACC-257 melanoma) was > 100 µM, the TGI (NCI-H23 lung) was > 100 µM and the TGI (SF-295 CNS) was > 100 µM. For the same molecule, the TGI (SK-OV-3 ovarian) was > 100 µM, the TGI (MOLT-4 leukemia) was > 100 µM and the TGI (CCRF-CEM leukemia) was > 100 µM. The TGI (OVCAR-8 ovarian) was > 100 µM, the TGI (SF-268 CNS) was > 100 µM and the TGI (NCI-H460 lung) was > 100 µM. The TGI (COLO 205 colon) was > 100 µM, the TGI (M19-MEL melanoma) was > 100 µM and the TGI (HT29 colon) was > 100 µM. The TGI (OVCAR-5 ovarian) was > 100 µM, the TGI (KM12 colon) was > 100 µM and the TGI (HOP-92 NSCLC) was > 100 µM. The TGI (SNB-19 CNS) was > 100 µM, the TGI (OVCAR-3 ovarian) was > 100 µM and the TGI (SW-620 colon) was > 100 µM. For the same molecule, the TGI (SNB-75 CNS) was > 100 µM, the TGI (SF-539 CNS) was 24 µM and the TGI (HCT-116 colon) was > 100 µM. The TGI (786-0 renal) was > 100 µM, the TGI (ACHN renal) was > 100 µM and the TGI (IGROV1 ovarian) was > 100 µM. The TGI (HCT-15 colon) was > 100 µM, the TGI (UO-31 renal) was > 100 µM and the TGI (DMS 114 small cell lung) was > 100 µM. For the same molecule, the TGI (MALME-3M melanoma) was > 100 µM, the TGI (SN12C renal) was 24.4 µM and the TGI (SNB-78 CNS) was > 100 µM. The TGI (EKVX NSCLC) was > 100 µM, the TGI (A498 renal) was 31.5 µM and the TGI (DMS 273 small cell lung) was > 100 µM. The TGI (NCI-H522 lung) was > 100 µM, the TGI (KM20L2 colon) was > 100 µM and the TGI (TK-10 renal) was > 100 µM. The TGI (NCI-H226 lung) was > 100 µM, the TGI (K-562 leukemia) was > 100 µM and the TGI (CAKI-1 renal) was > 100 µM. The TGI (M14 melanoma) was > 100 µM, the TGI (SR leukemia) was > 100 µM and the TGI (LXFL 529 NSCLC) was > 100 µM. For the same molecule, the TGI (HL-60(TB) leukemia) was > 100 µM, the TGI (DLD-1 colon) was > 100 µM and the TGI (A549 NSCLC) was > 100 µM. For the same molecule, the TGI (SK-MEL-2 melanoma) was > 100 µM and the TGI (RPMI-8226 leukemia) was > 100 µM.
In the case of `C=C1C(=O)C[C@H]2C(=C)C(=O)O[C@@H]2C2C1CC[C@@]2(C)O` (stereo partly specified), the TGI (SK-MEL-5 melanoma) is reported as > 100 µM, the TGI (LOX IMVI melanoma) is reported as 68.8 µM and the TGI (HOP-62 NSCLC) is reported as > 100 µM. The TGI (RXF 393 renal) was 43.9 µM, the TGI (SK-MEL-28 melanoma) was 85.5 µM and the TGI (MDA-MB-435) was > 100 µM. The TGI (HS 578T breast) was > 100 µM, the TGI (UACC-62 melanoma) was 31.2 µM and the TGI (U251 CNS) was > 100 µM. For the same molecule, the TGI (UACC-257 melanoma) was 56.1 µM, the TGI (NCI-H23 lung) was 59.4 µM and the TGI (SF-295 CNS) was > 100 µM. For the same molecule, the TGI (DU-145 prostate) was > 100 µM, the TGI (BT-549 breast) was 44 µM and the TGI (T-47D breast) was 68.8 µM. For the same molecule, the TGI (SK-OV-3 ovarian) was > 100 µM, the TGI (MOLT-4 leukemia) was > 100 µM and the TGI (CCRF-CEM leukemia) was > 100 µM. The TGI (OVCAR-8 ovarian) was > 100 µM, the TGI (SF-268 CNS) was > 100 µM and the TGI (NCI-H460 lung) was 43.1 µM. The TGI (COLO 205 colon) was 54.8 µM, the TGI (HT29 colon) was 41.1 µM and the TGI (OVCAR-5 ovarian) was > 100 µM. The TGI (KM12 colon) was > 100 µM, the TGI (HOP-92 NSCLC) was > 100 µM and the TGI (SNB-19 CNS) was > 100 µM. For the same molecule, the TGI (OVCAR-3 ovarian) was 35.8 µM, the TGI (SW-620 colon) was > 100 µM and the TGI (SNB-75 CNS) was > 100 µM. The TGI (PC-3 prostate) was > 100 µM, the TGI (SF-539 CNS) was > 100 µM and the TGI (HCT-116 colon) was > 100 µM. It also gave a TGI (MDA-MB-231 breast) of 75.2 µM, a TGI (786-0 renal) of 77.7 µM and a TGI (ACHN renal) of 25 µM. For the same molecule, the TGI (IGROV1 ovarian) was > 100 µM, the TGI (HCC-2998 colon) was 38.1 µM and the TGI (HCT-15 colon) was 69.2 µM. The TGI (MCF7 breast) was 36.1 µM, the TGI (UO-31 renal) was 74.2 µM and the TGI (MALME-3M melanoma) was 44.9 µM. For the same molecule, the TGI (MDA-N) was 77.8 µM, the TGI (SN12C renal) was > 100 µM and the TGI (EKVX NSCLC) was > 100 µM. For the same molecule, the TGI (A498 renal) was > 100 µM, the TGI (NCI-H522 lung) was 41.4 µM and the TGI (TK-10 renal) was 41.4 µM. The TGI (NCI/ADR-RES ovarian) was 64.2 µM, the TGI (NCI-H226 lung) was 54.3 µM and the TGI (K-562 leukemia) was > 100 µM. The TGI (CAKI-1 renal) was 40.3 µM, the TGI (M14 melanoma) was 33.5 µM and the TGI (SR leukemia) was > 100 µM. The TGI (HL-60(TB) leukemia) was > 100 µM, the TGI (A549 NSCLC) was > 100 µM and the TGI (SK-MEL-2 melanoma) was 56.6 µM. The TGI (RPMI-8226 leukemia) was > 100 µM.
